Measured values published in ChEMBL document CHEMBL3856182, “How much successful are the medicinal chemists in modulation of SIRT1: A critical review” (Eur J Med Chem, 2016).

What was measured:
[1] = Cytotoxicity in human MDA-MB-231 cells assessed as growth inhibition measured after 48 hrs by MTT assay; assay type: functional; settings: MDA-MB-231, 48 h
[2] = Cytotoxicity in HEK293 cells assessed as growth inhibition measured after 48 hrs by MTT assay; assay type: toxicity, cell-based; settings: human
[3] = Cytotoxicity in human U937 cells assessed as growth inhibition measured after 48 hrs by MTT assay; assay type: functional; settings: U-937, 48 h
[4] = Cytotoxicity in human LNCAP cells assessed as growth inhibition measured after 48 hrs by MTT assay; assay type: functional
[5] = Cytotoxicity in human Caco2 cells assessed as growth inhibition measured after 48 hrs by MTT assay; assay type: functional; settings: Caco-2, 48 h
[6] = biological target: T1, NAD-dependent protein deacetylase sirtuin-2 (Homo sapiens, UniProt Q8IXJ6); assay: Competitive inhibition of human SIRT2 assessed as deacetylation activity using fluorescent peptide substrate in presence of NAD+ by Lineweaver-Burk plot analysis
T1 sequence (Q8IXJ6 whole entry): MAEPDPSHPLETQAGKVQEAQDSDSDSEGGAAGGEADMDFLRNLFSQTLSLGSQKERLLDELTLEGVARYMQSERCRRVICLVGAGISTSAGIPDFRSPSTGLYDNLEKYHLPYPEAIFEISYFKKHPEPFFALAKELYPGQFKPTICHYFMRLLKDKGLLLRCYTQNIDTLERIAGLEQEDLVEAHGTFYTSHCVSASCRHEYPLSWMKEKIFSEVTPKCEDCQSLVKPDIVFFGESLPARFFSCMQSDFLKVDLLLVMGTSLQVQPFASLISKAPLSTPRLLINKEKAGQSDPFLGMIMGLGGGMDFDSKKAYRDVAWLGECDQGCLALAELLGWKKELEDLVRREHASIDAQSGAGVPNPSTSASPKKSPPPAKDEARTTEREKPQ

[7] = biological target: T1, NAD-dependent protein deacetylase sirtuin-2; assay: Noncompetitive inhibition of human SIRT2 assessed as deacetylation activity using fluorescent substrate in presence of NAD+ by Lineweaver-Burk plot analysis
[8] = biological target: T2, NAD-dependent protein deacetylase sirtuin-1 (Homo sapiens, UniProt Q96EB6); assay: Inhibition of recombinant human SIRT1 assessed as deacetylation activity using fluorescent substrate in presence of NAD+ by fluorescence analysis
T2 sequence (Q96EB6 whole entry): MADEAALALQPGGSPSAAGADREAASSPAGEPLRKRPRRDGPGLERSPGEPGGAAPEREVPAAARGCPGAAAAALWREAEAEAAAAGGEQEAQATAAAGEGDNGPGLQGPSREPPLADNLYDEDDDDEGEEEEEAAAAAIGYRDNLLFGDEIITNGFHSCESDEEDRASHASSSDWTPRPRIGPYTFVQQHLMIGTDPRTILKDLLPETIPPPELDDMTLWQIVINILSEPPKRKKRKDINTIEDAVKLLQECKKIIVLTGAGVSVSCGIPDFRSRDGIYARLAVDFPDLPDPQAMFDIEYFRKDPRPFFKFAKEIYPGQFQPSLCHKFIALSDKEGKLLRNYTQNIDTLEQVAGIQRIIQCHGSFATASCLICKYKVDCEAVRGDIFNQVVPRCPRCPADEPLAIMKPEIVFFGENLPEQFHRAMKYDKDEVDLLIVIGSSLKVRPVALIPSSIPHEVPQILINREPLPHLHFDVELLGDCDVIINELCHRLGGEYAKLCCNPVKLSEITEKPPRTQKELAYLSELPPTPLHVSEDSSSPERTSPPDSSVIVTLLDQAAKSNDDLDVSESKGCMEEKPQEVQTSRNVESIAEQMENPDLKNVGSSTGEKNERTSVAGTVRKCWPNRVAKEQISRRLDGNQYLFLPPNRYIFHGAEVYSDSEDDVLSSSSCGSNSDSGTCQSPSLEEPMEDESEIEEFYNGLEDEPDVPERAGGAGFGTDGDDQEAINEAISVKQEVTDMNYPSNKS

[9] = biological target: T1, NAD-dependent protein deacetylase sirtuin-2; assay: Inhibition of recombinant human SIRT2 assessed as deacetylation activity using fluorescent substrate in presence of NAD+ by fluorescence analysis
[10] = biological target: T2, NAD-dependent protein deacetylase sirtuin-1; assay: Inhibition of recombinant SIRT1 (unknown origin) assessed as deacetylation activity using acetylated p53 as substrate measured after 2 hrs by Fluor de Lys assay
[11] = biological target: T3, NAD-dependent protein deacetylase sirtuin-1 (Homo sapiens) (UniProt Q96EB6); assay: Activation of recombinant human SIRT1 using TPE-GK(Ac)YDD as substrate at 50 uM by fluorescence assay relative to control
T3 sequence (whole entry): T2 sequence (Q96EB6 whole entry)

[12] = biological target: T2, NAD-dependent protein deacetylase sirtuin-1; assay: Inhibition of recombinant human GST-tagged SIRT1 overexpressed in Escherichia coli DH5alpha assessed as deacetylation activity using [3H]-MPSDKTIGG as substrate measured after overnight incubation by liquid scintillation counting method
[13] = biological target: T1, NAD-dependent protein deacetylase sirtuin-2; assay: Inhibition of recombinant human GST-tagged SIRT2 overexpressed in Escherichia coli DH5alpha assessed as deacetylation activity using [3H]-MPSDKTIGG as substrate measured after overnight incubation by liquid scintillation counting method
[14] = biological target: T2, NAD-dependent protein deacetylase sirtuin-1; assay: Activation of recombinant human SIRT1 assessed as increase in deacetylation of Fluor de Lys-SIRT1-specific substrate after 2 hrs by HTS assay
[15] = Oral bioavailability in rat at 56 or 168 mg/kg/day administered through gavage for 14 consecutive days by HPLC analysis; assay type: ADME, organism-based; settings: in vivo
[16] = biological target: T3, NAD-dependent protein deacetylase sirtuin-1 (Homo sapiens); assay: Activation of recombinant human SIRT1 using TPE-GK(Ac)YDD as substrate at 1 to 50 uM by fluorescence assay relative to control
[17] = biological target: T1, NAD-dependent protein deacetylase sirtuin-2; assay: Inhibition of full-length human N-terminal His6-tagged SIRT2 expressed in Escherichia coli BL21 (DE3) assessed as inhibition of deacetylase activity using ZMAL as substrate measured after 4 hrs by Fluor de Lys assay
[18] = biological target: T1, NAD-dependent protein deacetylase sirtuin-2; assay: Inhibition of human SIRT2 using biotin labeled histone H4 peptide with an acetylated lysine 4 as substrate measured after 1 hr by luminescence analysis
[19] = biological target: T2, NAD-dependent protein deacetylase sirtuin-1; assay: Inhibition of human SIRT1 using biotinylated peptide with an acetylated FLAG sequence as substrate measured after 3 hr in presence of NAD+ by TR-FRET assay
[20] = biological target: T2, NAD-dependent protein deacetylase sirtuin-1; assay: Inhibition of full-length human N-terminal GST-tagged SIRT1 expressed in Escherichia coli BL21 (DE3) assessed as inhibition of deacetylase activity using ZMAL as substrate measured after 4 hrs by Fluor de Lys assay
[21] = biological target: T2, NAD-dependent protein deacetylase sirtuin-1; assay: Inhibition of recombinant human SIRT1 (193 to 747 residues) expressed in Escherichia coli BL21 (DE3) using AMC-labeled p53-derived acetylated lysine as substrate in presence of NAD+ by HTS assay
[22] = biological target: T1, NAD-dependent protein deacetylase sirtuin-2; assay: Inhibition of human N-terminal 6His-tagged SIRT2 assessed as inhibition of deacetylase activity using ZMAL as substrate measured after 4 hrs by Fluor de Lys assay
[23] = biological target: T2, NAD-dependent protein deacetylase sirtuin-1; assay: Inhibition of recombinant human SIRT1 assessed as inhibition of deacetylase activity using ZMAL as substrate measured after 4 hrs by Fluor de Lys assay
[24] = biological target: NAD-dependent histone deacetylase SIR2 (Saccharomyces cerevisiae S288c, UniProt P06700); assay: Non-competitive inhibition of recombinant yeast glutathione-S-transferase-tagged SIRT2 using acetylated histone as substrate measured after 30 mins by fluorimetric analysis
Sequence of NAD-dependent histone deacetylase SIR2 (P06700 whole entry): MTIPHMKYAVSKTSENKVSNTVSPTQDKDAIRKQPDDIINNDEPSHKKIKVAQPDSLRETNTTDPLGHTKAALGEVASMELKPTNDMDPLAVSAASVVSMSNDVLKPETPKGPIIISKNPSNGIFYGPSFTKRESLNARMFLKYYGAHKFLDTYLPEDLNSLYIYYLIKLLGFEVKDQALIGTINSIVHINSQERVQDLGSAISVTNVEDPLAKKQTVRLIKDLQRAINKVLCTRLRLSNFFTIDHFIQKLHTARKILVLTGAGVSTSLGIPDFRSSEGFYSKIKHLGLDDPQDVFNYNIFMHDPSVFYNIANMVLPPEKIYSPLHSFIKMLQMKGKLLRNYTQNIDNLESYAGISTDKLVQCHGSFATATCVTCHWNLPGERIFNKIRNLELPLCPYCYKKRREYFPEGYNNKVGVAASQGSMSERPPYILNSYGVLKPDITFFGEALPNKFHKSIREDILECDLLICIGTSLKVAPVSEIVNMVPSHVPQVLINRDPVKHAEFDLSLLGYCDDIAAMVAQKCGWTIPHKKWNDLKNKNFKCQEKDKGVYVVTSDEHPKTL

## O=C(O)c1cccc(NC(=O)c2ccc(N3C(=O)c4ccc(C(=O)Nc5cccc(C(=O)O)c5)cc4C3=O)cc2)c1
[1]
  GI50: < 1 µM
[2]
  GI50 at 48 h: < 1 µM
[3]
  GI50: < 1 µM
[4]
  GI50: < 1 µM
[5]
  GI50: < 1 µM

## O=C(/C=C/c1ccc(O)c(O)c1)NC(Cc1c[nH]c2ccccc12)C(=O)O (stereo not drawn)
[6]
  Ki: 5.3 µM
[7]
  Ki: 9.8 µM
[8]
  IC50: 34 µM
[9]
  IC50: 8.7 µM

## Cc1ccc2[nH]c3c(c2c1)CCCC3C(=O)O (stereo not drawn)
[10]
  IC50: 3.1 µM

## CC(C)=CCC[C@](C)(O[C@@H]1O[C@H](CO)[C@@H](O)[C@H](O)[C@H]1O)[C@H]1CC[C@]2(C)[C@@H]1[C@H](O)C[C@@H]1[C@@]3(C)CC[C@H](O)C(C)(C)[C@@H]3[C@@H](O)C[C@]12C
[11]
  Activity: 28%

## CC(C)=CCC/C(C)=C/C[C@@H]1C[C@]2(CC=C(C)C)C(=O)[C@@](CC=C(C)C)(C(=O)C(Cc3ccc(O)c(O)c3)=C2O)[C@@]1(C)CCC=C(C)C
[12]
  IC50: 9 µM
[13]
  IC50: 22 µM

## Nc1c(S(=O)(=O)c2ccccc2)c2nc3ccccc3nc2n1-c1ccc(F)cc1
[14]
  EC50: < 1 µM

## COc1cc(/C=C/c2ccc(O)cc2)cc(OC)c1 [PTEROSTILBENE]
[15]
  bioavailability: 80%

## CN(C)/C=N/C(=O)C1CCCc2c1[nH]c1ccc(Cl)cc21 (stereo not drawn)
[10]
  IC50: 0.149 µM

## CC(C)=CCC[C@](C)(O[C@@H]1O[C@H](CO[C@@H]2OC[C@H](O)[C@H](O)[C@H]2O)[C@@H](O)[C@H](O)[C@H]1O)[C@H]1CC[C@]2(C)[C@@H]1[C@H](O)C[C@@H]1[C@@]3(C)CC[C@H](O[C@@H]4O[C@H](CO)[C@@H](O)[C@H](O)[C@H]4O[C@@H]4O[C@H](CO)[C@@H](O)[C@H](O)[C@H]4O)C(C)(C)[C@@H]3CC[C@]12C
[16]
  Activity: 8 to 152%

## CC1=CCC(C(=O)/N=C2\CC=C(S(=O)(=O)O)c3cc(S(=O)(=O)O)cc(S(=O)(=O)O)c32)=C/C1=N/C(=O)C1=CC=C/C(=N\C(=O)/N=C2\C=CC=C(C(=O)/N=C3/CC(C(=O)/N=C4\CC=C(S(=O)(=O)O)c5cc(S(=O)(=O)O)cc(S(=O)(=O)O)c54)=CC=C3C)C2)C1
[17]
  IC50: 1.15 µM

## CCCCc1nc2c(=O)n(C)c(=O)nc-2n(C)n1
[18]
  IC50: > 100 µM
[19]
  IC50: 0.11 µM

## Cc1ccc(-c2nc3c(=O)n(C)c(=O)nc-3n(C)n2)cc1
[18]
  IC50: > 100 µM
[19]
  IC50: 0.11 µM

## Nc1cc(NC(=O)Nc2cccc(C(=O)Nc3cccc(C(=O)Nc4ccc(S(=O)(=O)O)c5cc(S(=O)(=O)O)cc(S(=O)(=O)O)c45)c3)c2)cc(C(=O)Nc2cccc(C(=O)Nc3ccc(S(=O)(=O)O)c4cc(S(=O)(=O)O)cc(S(=O)(=O)O)c34)c2)c1
[17]
  IC50: 2.26 µM
[20]
  IC50: 0.093 µM

## Fc1cccc(-n2cc(CSC(=S)N3CCN(C(=S)SCc4cn(-c5ccccc5F)nn4)CC3)nn2)c1
[21]
  IC50: 1.08 µM

## O=C1CC(=S)NC(=O)/C1=C/c1cc2ccccc2[nH]1
[22]
  IC50: < 20.3 µM
[23]
  IC50: 5.9 µM

## NC(=O)c1cccnc1 [NIACINAMIDE]
[24]
  IC50: < 50 µM
